Source: ChEMBL document CHEMBL4011596, “Design, synthesis, and biological evaluation of a highly water-soluble psoralen-based photosensitizer” (Bioorg Med Chem, 2017)
Activity calls are given as the source filed them. No cut-off for these calls is given here.

What was measured:
BALB/3T3 [1] = assay: Photocytotoxicity against mouse BALB/3T3 cells at >42 uM preincubated for 48 hrs followed by 3.3 J/cm2 UV light irradiation for 500 sec measured after 18 hrs by Alamar blue assay; assay type: functional, cell-based
[2] = Induction of singlet oxygen production in DMSO assessed as decrease in DPBF level by measuring quantum yield after irradiation with halogen light by spectroscopic analysis relative to control; design: scale not given: the % may be the effect or the level left
BALB/3T3 [3] = assay: Photocytotoxicity against mouse BALB/3T3 cells assessed as cell death at 2.9 uM preincubated for 48 hrs followed by 3.3 J/cm2 UV light irradiation for 500 sec measured after 18 hrs by Alamar blue assay relative to control; assay type: functional

Compound	Activity (BALB/3T3 [1])	Activity [2] [%]	Activity (BALB/3T3 [3]) [%]
COc1c2occc2c(Cn2cc(CO[C@@H]3O[C@H](CO)[C@H](O)[C@H](O)[C@H]3O)nn2)c2ccc(=O)oc12	Active	24	
COc1c2occc2c(Cn2cc(CO[C@@H]3O[C@H](CO)[C@@H](O)[C@H](O)[C@H]3O)nn2)c2ccc(=O)oc12	Active	24	15
O=c1ccc2cc3ccoc3cc2o1	Active	17	
